{"source": "ChEMBL document CHEMBL6120934", "about": "“Isolation and Characterization of Insecticidal Cyclotides from Viola communis” (J Nat Prod, 2025)", "note": "Bridge positions count the residues as written; N and C are the ends. Peptide text beside a SMILES is read from it.", "data": [{"assay": "Cytotoxicity against Spodoptera frugiperda Sf9 cells assessed as inhibition of cell viability incubated for 24 hrs by resazurin assay", "assay_type": "toxicity, cell-based", "units": {"CC50 at 24 h": "nM"}, "values": [{"smiles": "CC(C)C[C@@H]1NC(=O)CNC(=O)[C@H](CC(N)=O)NC(=O)[C@H](CCCNC(=N)N)NC(=O)[C@H]([C@@H](C)O)NC(=O)[C@@H]2CSSC[C@@H]3NC(=O)[C@H]([C@@H](C)O)NC(=O)CNC(=O)CNC(=O)[C@H](C(C)C)NC(=O)[C@@H]4CSSC[C@H](NC(=O)[C@H]([C@@H](C)O)NC(=O)[C@H](CSSC[C@H](NC(=O)[C@H](C(C)C)NC(=O)[C@@H]5CCCN5C1=O)C(=O)NCC(=O)N[C@@H](CCC(=O)O)C(=O)N[C@@H]([C@@H](C)O)C(=O)N4)NC(=O)CNC(=O)[C@@H]1CCCN1C(=O)[C@H]([C@@H](C)O)NC(=O)[C@H](CC(N)=O)NC3=O)C(=O)N[C@@H](CO)C(=O)N[C@@H](Cc1c[nH]c3ccccc13)C(=O)N1CCC[C@H]1C(=O)N[C@@H](C(C)C)C(=O)N2", "CC50 at 24 h": 2310}, {"smiles": "CC[C@H](C)[C@@H]1NC(=O)[C@H](C(C)C)NC(=O)[C@H](CO)NC(=O)[C@H](CO)NC(=O)[C@H](Cc2ccccc2)NC(=O)[C@@H]2CSSC[C@@H](C(=O)N[C@@H](Cc3ccc(O)cc3)C(=O)N[C@@H](CC(N)=O)C(=O)O)NC(=O)[C@H](C(C)C)NC(=O)[C@H](CCCCN)NC(=O)[C@H](CC(N)=O)NC(=O)[C@H](CCCCN)NC(=O)[C@@H]3CSSC[C@H](NC(=O)[C@H](CO)NC(=O)[C@H](CCC(=O)O)NC(=O)CNC(=O)[C@@H](NC(=O)[C@@H]4CCCN4C(=O)[C@@H](NC(=O)[C@H](C)NC(=O)[C@H](C)N)C(C)C)CSSC[C@H](NC(=O)CNC1=O)C(=O)N[C@@H](CO)C(=O)N3)C(=O)N[C@@H](C(C)C)C(=O)N[C@@H](Cc1c[nH]c3ccccc13)C(=O)N[C@@H]([C@@H](C)CC)C(=O)N1CCC[C@H]1C(=O)N2", "note": "(H-AAVPCGESCVWIPCFSSVIGCSCKNKVCYN-OH; disulfide 5-21, 9-23, 14-28)", "CC50 at 24 h": 160}, {"smiles": "CC(C)[C@H](NC(=O)[C@@H]1CCCN1C(=O)[C@H](C)NC(=O)CN)C(=O)N[C@H]1CSSC[C@@H]2NC(=O)CNC(=O)[C@@H]3CCCN3C(=O)[C@H]([C@@H](C)O)NC(=O)[C@H](CC(N)=O)NC(=O)[C@@H]3CSSC[C@@H](C(=O)N[C@@H](CO)C(=O)N[C@@H](CCCCN)C(=O)N[C@@H](CC(N)=O)C(=O)O)NC(=O)[C@H](C(C)C)NC(=O)[C@@H]4CCCN4C(=O)[C@H](Cc4c[nH]c5ccccc45)NC(=O)[C@@H]4CCCN4C(=O)[C@H](CC(=O)O)NC(=O)[C@H](CSSC[C@H](NC(=O)[C@H]([C@@H](C)O)NC(=O)[C@H](CCC(=O)O)NC(=O)CNC1=O)C(=O)N[C@@H](Cc1ccccc1)C(=O)NCC(=O)NCC(=O)N[C@@H]([C@@H](C)O)C(=O)N3)NC(=O)[C@H]([C@@H](C)O)NC2=O", "note": "(H-GAPVCGETCFGGTCNTPGCTCDPWPVCSKN-OH; disulfide 5-19, 9-21, 14-27)", "CC50 at 24 h": 7610}, {"smiles": "CC[C@H](C)[C@@H]1NC(=O)[C@@H]2CSSC[C@@H](C(=O)N[C@@H](Cc3ccc(O)cc3)C(=O)N[C@@H](CCCCN)C(=O)N[C@@H](CC(N)=O)C(=O)O)NC(=O)[C@H](C(C)C)NC(=O)[C@H](CCCCN)NC(=O)[C@H](CO)NC(=O)[C@H](CCCCN)NC(=O)[C@@H]3CSSC[C@H](NC(=O)[C@H](CO)NC(=O)[C@H](CCC(=O)O)NC(=O)CNC(=O)[C@@H](NC(=O)[C@@H]4CCCN4C(=O)[C@H](CC(C)C)NC(=O)[C@@H](NC(=O)CN)[C@@H](C)O)CSSC[C@H](NC(=O)CNC(=O)[C@H](C(C)C)NC(=O)[C@H](C(C)C)NC(=O)[C@H](CO)NC(=O)[C@H](CO)NC1=O)C(=O)N[C@@H](CO)C(=O)N3)C(=O)N[C@@H](C(C)C)C(=O)N[C@@H](Cc1c[nH]c3ccccc13)C(=O)N[C@@H]([C@@H](C)CC)C(=O)N1CCC[C@H]1C(=O)N2", "note": "(H-GTLPCGESCVWIPCISSVVGCSCKSKVCYKN-OH; disulfide 5-21, 9-23, 14-28)", "CC50 at 24 h": 110}]}]}
